These are literature values, as cited in US11840582B2, “Synthesis method of cyclosporine derivatives” (Peking University Shenzhen Graduate School, priority 2021, dated 2023).

SMILES strings stand for the structures. Non-standard residues stand in square brackets, D forms with d. Residues, ends and D or L forms follow the SMILES beside them. NMeThr(4R-Me,4-(CH2)6NHAc) = CN[C@H](C(=O)O)[C@H](O)[C@H](C)CCCCCCNC(C)=O; NMeL = CN[C@@H](CC(C)C)C(=O)O; NMeV = CN[C@H](C(=O)O)C(C)C; dNMeA = CN[C@H](C)C(=O)O; Abu = CC[C@H](N)C(=O)O

The series concerns cyclophilin proteins (CyP), including cyclophilin protein A, cyclophilin protein B, cyclophilin protein H and cyclophilin protein G.

Turning to `CC[C@@H]1NC(=O)[C@H]([C@H](O)[C@H](C)CCCCCCNC(C)=O)N(C)C(=O)[C@H](C(C)C)N(C)C(=O)[C@H](CC(C)C)N(C)C(=O)[C@H](CC(C)C)N(C)C(=O)[C@@H](C)NC(=O)[C@H](C)NC(=O)[C@H](CC(C)C)N(C)C(=O)[C@H](C(C)C)NC(=O)[C@H](CC(C)C)N(C)C(=O)[C@@H](C)N(C)C1=O` [CRV431] (cyclo(A[dA][NMeL][NMeL][NMeV][NMeThr(4R-Me,4-(CH2)6NHAc)][Abu][dNMeA][NMeL]V[NMeL])), the half-maximal inhibitory concentration (IC50) is 1 to 7 nM and the “potency relative to cyclosporine A inhibiting the activity of cyclophilin protein” value is on record as not above 13 times.

By IC50 is commonly meant the point on the concentration scale where inhibition reaches its midpoint.
